According to the supplement of paper PMC10307832:

Experiments:
Assay in all cases: relative viability (nuclei count vs DMSO), 5 days (fraction); higher = more cells survive
[1] = test system: EKVX
Summary of the method: (§1)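 Lung cancer cell lines were pin-tool dosed in 1536-well plates on the day after seeding, with either a lone drug or a fixed anchor-drug dose plus five library-drug doses (not always all listed) in √10 steps. Nuclei were counted on 4× images after 5 days. Relative viability is the ratio of treated-well to vehicle-well nuclei counts, with each value a median of duplicate plates.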

[2] = test system: NCI-H661
Summary of the method: as §1

[3] = test system: CAL-12T
Summary of the method: as §1

[4] = test system: 201T
Summary of the method: as §1

[5] = test system: SW 900
Summary of the method: as §1

[6] = test system: NCI-H441
Summary of the method: as §1

[7] = test system: LOU-NH91
Summary of the method: as §1

[8] = test system: NCI-H1650
Summary of the method: as §1

[9] = test system: BEN
Summary of the method: as §1

[10] = test system: PC-14
Summary of the method: as §1

[11] = test system: NCI-H2009
Summary of the method: as §1

[12] = test system: COR-L 105
Summary of the method: as §1

[13] = test system: HARA
Summary of the method: as §1

[14] = test system: NCI-H460
Summary of the method: as §1

[15] = test system: NCI-H2170
Summary of the method: as §1

[16] = test system: LK-2
Summary of the method: as §1

[17] = test system: NCI-H1437
Summary of the method: as §1

[18] = test system: NCI-H3122
Summary of the method: as §1

[19] = test system: HCC-366
Summary of the method: as §1

[20] = test system: NCI-H1666
Summary of the method: as §1

`COc1nc(C)cnc1NS(=O)(=O)c1cccnc1-c1ccc(-c2nnco2)cc1` [Zibotentan] + Nc1nc2[nH]cc(CCc3ccc(C(=O)N[C@@H](CCC(=O)O)C(=O)O)cc3)c2c(=O)[nH]1 [Pemetrexed] (partner 0.2 µM) was tested, and the relative viability ([1]; first compound 0.08 µM) was 0.347, the relative viability ([1]; first compound 0.253 µM) was 0.384 and the relative viability ([1]; first compound 0.8 µM) was 0.372. The relative viability ([1]; first compound 2.53 µM) was 0.463, the relative viability ([2]; first compound 0.08 µM) was 0.931 and the relative viability ([2]; first compound 0.253 µM) was 0.881. The relative viability ([2]; first compound 0.8 µM) was 0.873, the relative viability ([2]; first compound 2.53 µM) was 0.912 and the relative viability ([3]; first compound 0.08 µM) was 1.28. It also gave a relative viability ([3]; first compound 0.253 µM) of 1.06, a relative viability ([3]; first compound 0.8 µM) of 1.23 and a relative viability ([3]; first compound 2.53 µM) of 1.16. For the same compound, the relative viability ([4]; first compound 0.08 µM) was 0.327, the relative viability ([4]; first compound 0.253 µM) was 0.355 and the relative viability ([4]; first compound 0.8 µM) was 0.247. For the same compound, the relative viability ([4]; first compound 2.53 µM) was 0.323, the relative viability ([5]; first compound 0.08 µM) was 0.503 and the relative viability ([5]; first compound 0.253 µM) was 0.461. It also gave a relative viability ([5]; first compound 0.8 µM) of 0.656, a relative viability ([5]; first compound 2.53 µM) of 0.472 and a relative viability ([6]; first compound 0.08 µM) of 0.284. The relative viability ([6]; first compound 0.253 µM) was 0.298, the relative viability ([6]; first compound 0.8 µM) was 0.262 and the relative viability ([6]; first compound 2.53 µM) was 0.249. For the same compound, the relative viability ([7]; first compound 0.08 µM) was 0.366, the relative viability ([7]; first compound 0.253 µM) was 0.357 and the relative viability ([7]; first compound 0.8 µM) was 0.369. It also gave a relative viability ([7]; first compound 2.53 µM) of 0.408, a relative viability ([8]; first compound 0.08 µM) of 0.364 and a relative viability ([8]; first compound 0.8 µM) of 0.387. The relative viability ([8]; first compound 2.53 µM) was 0.402, the relative viability ([9]; first compound 0.08 µM) was 0.781 and the relative viability ([9]; first compound 0.253 µM) was 0.707. The relative viability ([9]; first compound 0.8 µM) was 0.774, the relative viability ([9]; first compound 2.53 µM) was 0.722 and the relative viability ([10]; first compound 0.08 µM) was 0.143. It also gave a relative viability ([10]; first compound 0.253 µM) of 0.12, a relative viability ([10]; first compound 0.8 µM) of 0.129 and a relative viability ([10]; first compound 2.53 µM) of 0.144. The relative viability ([11]; first compound 0.08 µM) was 1.03, the relative viability ([11]; first compound 0.253 µM) was 1.01 and the relative viability ([11]; first compound 0.8 µM) was 1.01. For the same compound, the relative viability ([11]; first compound 2.53 µM) was 1.03, the relative viability ([12]; first compound 0.08 µM) was 1.08 and the relative viability ([12]; first compound 0.253 µM) was 0.87. For the same compound, the relative viability ([12]; first compound 0.8 µM) was 1.21, the relative viability ([12]; first compound 2.53 µM) was 1.05 and the relative viability ([13]; first compound 0.08 µM) was 0.247. It also gave a relative viability ([13]; first compound 0.8 µM) of 0.183, a relative viability ([13]; first compound 2.53 µM) of 0.292 and a relative viability ([14]; first compound 0.08 µM) of 0.0594. The relative viability ([14]; first compound 0.253 µM) was 0.0676, the relative viability ([14]; first compound 0.8 µM) was 0.0545 and the relative viability ([14]; first compound 2.53 µM) was 0.0682. It also gave a relative viability ([15]; first compound 0.08 µM) of 0.264, a relative viability ([15]; first compound 0.253 µM) of 0.256 and a relative viability ([15]; first compound 0.8 µM) of 0.445. It also gave a relative viability ([15]; first compound 2.53 µM) of 0.248, a relative viability ([16]; first compound 0.08 µM) of 0.299 and a relative viability ([16]; first compound 0.253 µM) of 0.252. It also gave a relative viability ([16]; first compound 0.8 µM) of 0.302, a relative viability ([16]; first compound 2.53 µM) of 0.208 and a relative viability ([17]; first compound 0.08 µM) of 0.35. The relative viability ([17]; first compound 0.253 µM) was 0.306, the relative viability ([17]; first compound 0.8 µM) was 0.281 and the relative viability ([17]; first compound 2.53 µM) was 0.32. For the same compound, the relative viability ([18]; first compound 0.08 µM) was 0.204, the relative viability ([18]; first compound 0.253 µM) was 0.199 and the relative viability ([18]; first compound 0.8 µM) was 0.308. For the same compound, the relative viability ([18]; first compound 2.53 µM) was 0.219, the relative viability ([19]; first compound 0.08 µM) was 0.163 and the relative viability ([19]; first compound 0.253 µM) was 0.179. The relative viability ([19]; first compound 0.8 µM) was 0.0897, the relative viability ([19]; first compound 2.53 µM) was 0.147 and the relative viability ([20]; first compound 0.08 µM) was 0.842. It also gave a relative viability ([20]; first compound 0.253 µM) of 0.726, a relative viability ([20]; first compound 0.8 µM) of 0.862 and a relative viability ([20]; first compound 2.53 µM) of 0.829.
